{
  "source": "PubChem BioAssay AID180",
  "about": "(DTP/NCI, 2004)",
  "test_system": "BDF1 mice, Adenocarcinoma 755 s.c., tumor weight T/C",
  "assay": "NCI In Vivo Anticancer Drug Screen. Data for tumor model Adenocarcinoma 755 (subcutaneous) in B6D2F1 (BDF1) mice",
  "conditions": "endpoint: mean tumor weight, higher = larger tumour",
  "in_short": "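Values express treated (T) relative to vehicle-dosed control (C) animals, based on survival or tumour size measured after compound treatment of mice bearing a transplanted tumour.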",
  "key": {"[1]": {"conditions": "dose: 75.0 mg/kg/injection, schedule: Q01DX011 (ip), vehicle: carboxymethylcellulose (CMC)"}, "[2]": {"conditions": "dose: 200.0 mg/kg/injection, schedule: Q01DX011 (ip), vehicle: methylcellulose (MC)"}},
  "note": "Several values for one entry are separate records, joined by “and”; a condition that tells them apart may be missing. Identical values can stand only once.",
  "data": [
    {"smiles": "CC(/C=N\\N=C(N)N)=N/N=C(N)N", "values": [
      {"measurement": "T/C", "setting": "dose: 5.75 mg/kg/injection, schedule: Q01DX011 (ip), vehicle: carboxymethylcellulose (CMC)", "result": "84 % of control"},
      {"measurement": "T/C", "setting": "dose: 7.62 mg/kg/injection, schedule: Q01DX011 (ip), vehicle: carboxymethylcellulose (CMC)", "result": "77 % of control"},
      {"measurement": "T/C", "setting": "dose: 11.5 mg/kg/injection, schedule: Q01DX011 (ip), vehicle: carboxymethylcellulose (CMC)", "result": "78 % of control"},
      {"measurement": "T/C", "setting": "dose: 15.24 mg/kg/injection, schedule: Q01DX011 (ip), vehicle: carboxymethylcellulose (CMC)", "result": "71 % of control"},
      {"measurement": "T/C", "setting": "dose: 18.4 mg/kg/injection, schedule: Q01DX011 (ip), vehicle: carboxymethylcellulose (CMC)", "result": "70 % of control and 86 % of control"},
      {"measurement": "T/C", "setting": "dose: 23.0 mg/kg/injection, schedule: Q01DX011 (ip), vehicle: carboxymethylcellulose (CMC)", "result": "93 % of control and 100 % of control and 80 % of control"},
      {"measurement": "T/C", "setting": "dose: 30.48 mg/kg/injection, schedule: Q01DX011 (ip), vehicle: carboxymethylcellulose (CMC)", "result": "42 % of control"},
      {"measurement": "T/C", "setting": "dose: 46.0 mg/kg/injection, schedule: Q01DX011 (ip), vehicle: carboxymethylcellulose (CMC)", "result": "29 % of control and 45 % of control and 51 % of control"},
      {"measurement": "T/C", "setting": "dose: 60.96 mg/kg/injection, schedule: Q01DX011 (ip), vehicle: carboxymethylcellulose (CMC)", "result": "35 % of control"}
    ]},
    {"smiles": "CS(=O)(=O)OCCCCCCCCCOS(C)(=O)=O", "values": [
      {"measurement": "T/C", "setting": "dose: 2.0 mg/kg/injection, schedule: Q01DX011 (ip), vehicle: carboxymethylcellulose (CMC)", "result": "35 % of control"},
      {"measurement": "T/C", "setting": "dose: 4.0 mg/kg/injection, schedule: Q01DX011 (ip), vehicle: carboxymethylcellulose (CMC)", "result": "49 % of control"},
      {"measurement": "T/C", "setting": "dose: 8.0 mg/kg/injection, schedule: Q01DX011 (ip), vehicle: carboxymethylcellulose (CMC)", "result": "54 % of control"},
      {"measurement": "T/C", "setting": "dose: 16.0 mg/kg/injection, schedule: Q01DX011 (ip), vehicle: carboxymethylcellulose (CMC)", "result": "26 % of control"},
      {"measurement": "T/C", "setting": "dose: 28.0 mg/kg/injection, schedule: Q01DX011 (ip), vehicle: carboxymethylcellulose (CMC)", "result": "7 % of control"}
    ]},
    {"smiles": "O=C(/C=C/C(=O)c1ccccc1)c1ccccc1", "values": [
      {"measurement": "T/C", "setting": "dose: 65.0 mg/kg/injection, schedule: Q01DX011 (ip), vehicle: other", "result": "76 % of control"},
      {"measurement": "T/C", "setting": "dose: 90.0 mg/kg/injection, schedule: Q01DX011 (ip), vehicle: other", "result": "59 % of control"},
      {"measurement": "T/C", "setting": "dose: 125.0 mg/kg/injection, schedule: Q01DX011 (ip), vehicle: other", "result": "51 % of control"}
    ]},
    {"smiles": "Cn1c(=O)c2c(ncn2CCCO)n(C)c1=O", "values": [
      {"measurement": "T/C", "setting": "[1]", "result": "61 % of control"},
      {"measurement": "T/C", "setting": "dose: 225.0 mg/kg/injection, schedule: Q01DX011 (ip), vehicle: carboxymethylcellulose (CMC)", "result": "65 % of control"}
    ]},
    {"smiles": "CCCCNc1nc(N)nc(Nc2ccc(Br)cc2)c1N=O", "values": [
      {"measurement": "T/C", "setting": "dose: 50.0 mg/kg/injection, schedule: Q01DX011 (ip), vehicle: carboxymethylcellulose (CMC)", "result": "18 % of control"},
      {"measurement": "T/C", "setting": "dose: 50.0 mg/kg/injection, schedule: Q01DX011 (ip), vehicle: methylcellulose (MC)", "result": "46 % of control"},
      {"measurement": "T/C", "setting": "dose: 100.0 mg/kg/injection, schedule: Q01DX011 (ip), vehicle: carboxymethylcellulose (CMC)", "result": "30 % of control"},
      {"measurement": "T/C", "setting": "dose: 100.0 mg/kg/injection, schedule: Q01DX011 (ip), vehicle: methylcellulose (MC)", "result": "44 % of control"},
      {"measurement": "T/C", "setting": "dose: 200.0 mg/kg/injection, schedule: Q01DX011 (ip), vehicle: carboxymethylcellulose (CMC)", "result": "53 % of control"},
      {"measurement": "T/C", "setting": "[2]", "result": "40 % of control"},
      {"measurement": "T/C", "setting": "dose: 400.0 mg/kg/injection, schedule: Q01DX011 (ip), vehicle: methylcellulose (MC)", "result": "47 % of control"},
      {"measurement": "T/C", "setting": "dose: 800.0 mg/kg/injection, schedule: Q01DX011 (ip), vehicle: carboxymethylcellulose (CMC)", "result": "23 % of control"}
    ]},
    {"smiles": "CC(=O)[C@@]1(O)[C@H](C)C[C@H]2[C@@H]3C=C(C)C4=Cc5c(cnn5-c5ccccc5)C[C@]4(C)[C@H]3[C@@H](O)C[C@@]21C", "values": [
      {"measurement": "T/C", "setting": "dose: 0.01 mg/kg/injection, schedule: Q01DX011 (sc), vehicle: steriod suspending solution", "result": "70 % of control"},
      {"measurement": "T/C", "setting": "dose: 0.03 mg/kg/injection, schedule: Q01DX011 (sc), vehicle: steriod suspending solution", "result": "43 % of control"},
      {"measurement": "T/C", "setting": "dose: 0.05 mg/kg/injection, schedule: Q01DX011 (sc), vehicle: steriod suspending solution", "result": "41 % of control"},
      {"measurement": "T/C", "setting": "dose: 0.2 mg/kg/injection, schedule: Q01DX011 (sc), vehicle: steriod suspending solution", "result": "27 % of control and 44 % of control"},
      {"measurement": "T/C", "setting": "dose: 0.3 mg/kg/injection, schedule: Q01DX011 (sc), vehicle: steriod suspending solution", "result": "14 % of control and 28 % of control"},
      {"measurement": "T/C", "setting": "dose: 0.5 mg/kg/injection, schedule: Q01DX011 (sc), vehicle: steriod suspending solution", "result": "33 % of control"},
      {"measurement": "T/C", "setting": "dose: 30.0 micrograms/kg/injection, schedule: Q01DX011 (ip), vehicle: saline", "result": "115 % of control"},
      {"measurement": "T/C", "setting": "dose: 60.0 micrograms/kg/injection, schedule: Q01DX011 (ip), vehicle: saline", "result": "115 % of control"},
      {"measurement": "T/C", "setting": "dose: 120.0 micrograms/kg/injection, schedule: Q01DX011 (ip), vehicle: saline", "result": "105 % of control"}
    ]},
    {"smiles": "Cn1c(=O)c2[nH]c(/N=N/N3CCCCC3)nc2n(C)c1=O", "values": [
      {"measurement": "T/C", "setting": "dose: 25.0 mg/kg/injection, schedule: Q01DX011 (ip), vehicle: methylcellulose (MC)", "result": "61 % of control"},
      {"measurement": "T/C", "setting": "dose: 75.0 mg/kg/injection, schedule: Q01DX011 (ip), vehicle: methylcellulose (MC)", "result": "69 % of control and 70 % of control"}
    ]},
    {"smiles": "O=c1[nH]c(=O)c2nc(Br)n(C3OC(CO)C(O)C3O)c2[nH]1", "note": "(stereo not given)", "values": [
      {"measurement": "T/C", "setting": "dose: 30.0 mg/kg/injection, schedule: Q01DX011 (ip), vehicle: carboxymethylcellulose (CMC)", "result": "119 % of control"},
      {"measurement": "T/C", "setting": "dose: 60.0 mg/kg/injection, schedule: Q01DX011 (ip), vehicle: carboxymethylcellulose (CMC)", "result": "105 % of control"},
      {"measurement": "T/C", "setting": "dose: 120.0 mg/kg/injection, schedule: Q01DX011 (ip), vehicle: carboxymethylcellulose (CMC)", "result": "68 % of control"},
      {"measurement": "T/C", "setting": "dose: 240.0 mg/kg/injection, schedule: Q01DX011 (ip), vehicle: carboxymethylcellulose (CMC)", "result": "86 % of control"}
    ]},
    {"smiles": "CC(C)CCn1cnc2c(SCC(=O)O)nc(N)nc21", "values": [
      {"measurement": "T/C", "setting": "dose: 20.0 mg/kg/injection, schedule: Q01DX011 (ip), vehicle: methylcellulose (MC)", "result": "46 % of control"},
      {"measurement": "T/C", "setting": "dose: 65.0 mg/kg/injection, schedule: Q01DX011 (ip), vehicle: methylcellulose (MC)", "result": "56 % of control"},
      {"measurement": "T/C", "setting": "[2]", "result": "55 % of control"}
    ]},
    {"smiles": "COc1cc2c3c(c4cc(OC)c(OC)cc4c2cc1OC)CN1CCC[C@H]1C3", "values": [
      {"measurement": "T/C", "setting": "dose: 8.8 mg/kg/injection, schedule: Q01DX006 (ip), vehicle: water", "result": "89 % of control and 71 % of control"},
      {"measurement": "T/C", "setting": "dose: 20.0 mg/kg/injection, schedule: Q01DX006 (ip), vehicle: water", "result": "50 % of control"}
    ]},
    {"smiles": "O=C1C(Cl)=C(Cl)C(=O)C2=C1C1c3ccccc3C2c2ccccc21", "values": [
      {"measurement": "T/C", "setting": "dose: 37.0 mg/kg/injection, schedule: Q01DX011 (ip), vehicle: carboxymethylcellulose (CMC)", "result": "83 % of control"},
      {"measurement": "T/C", "setting": "dose: 37.5 mg/kg/injection, schedule: Q01DX011 (ip), vehicle: carboxymethylcellulose (CMC)", "result": "117 % of control"},
      {"measurement": "T/C", "setting": "[1]", "result": "113 % of control and 114 % of control"},
      {"measurement": "T/C", "setting": "dose: 150.0 mg/kg/injection, schedule: Q01DX011 (ip), vehicle: carboxymethylcellulose (CMC)", "result": "89 % of control and 84 % of control"},
      {"measurement": "T/C", "setting": "dose: 300.0 mg/kg/injection, schedule: Q01DX011 (ip), vehicle: carboxymethylcellulose (CMC)", "result": "83 % of control"},
      {"measurement": "T/C", "setting": "dose: 325.0 mg/kg/injection, schedule: Q01DX011 (ip), vehicle: carboxymethylcellulose (CMC)", "result": "41 % of control"},
      {"measurement": "T/C", "setting": "dose: 400.0 mg/kg/injection, schedule: Q01DX011 (ip), vehicle: carboxymethylcellulose (CMC)", "result": "33 % of control"},
      {"measurement": "T/C", "setting": "dose: 600.0 mg/kg/injection, schedule: Q01DX011 (ip), vehicle: carboxymethylcellulose (CMC)", "result": "15 % of control"}
    ]}
  ]
}
